From patent US7091220B2, “Substituted indole Mannich bases” (Gruenenthal GmbH, priority 1999, dated 2006)

tested on: α2-subtype of the human α-adrenergic receptor; experiment: SPA test, affinity for the α2-subtype of the human α-adrenergic receptor; type: binding; details: not given
Procedure: Wide-ranging testing of the indole Mannich bases according to the invention for their activity was carried out by the conventional high throughput screening methods, such as are described in John P. Devlin, High Throughput Screening, 1997, Marcel Dekker Inc. They are introduced here as a reference and are therefore part of the disclosure.
The action of the indole Mannich bases according to the invention is determined in particular by the affinity for the N-methyl-D-aspartate (NMDA) receptor family, for (α-adrenergic receptors and opioid receptors.
The compounds of the general formula 1 according to the invention investigated are suitable as ligands for the α2-subtype of the human α-adrenergic receptor, which is of importance for pain sensation.
The affinity of the compounds according to the invention for this α2-subtype of the α-adrenergic receptor has been determined with the aid of the SPA test such as is described in John P. Devlin, High Throughput Screening, Marcel Dekker Inc. 1997, pages 307 to 316. This literature is introduced herewith as a reference and is therefore part of the disclosure. The affinities of the compounds according to the invention were in each case determined at a concentration of 10 μM.

Q: With `CCn1c(-c2ccccc2)c(C(c2c(F)cccc2Cl)N(C)C)c2ccccc21` (centres unmarked) [Example 54, [(2-Chloro-6-fluoro-phenyl)-(1-ethyl-2-phenyl-1H-indol-3-yl)-methyl]-dimethylamine] as the molecule, how does the “% Inhibition of α2 (humans), 10 μM” value read?
A: Its value is 55%.

Q: Which “% Inhibition of α2 (humans), 10 μM” value does the source give for `CN(C)C(c1c(F)cccc1Cl)c1c[nH]c2cccc([N+](=O)[O-])c12` (centres unmarked) [Example 55, [(2-Chloro-6-fluoro-phenyl)-(4-nitro-1H-indol-3-yl)-methyl]-dimethyl-amine] here?
A: Its value is 49%.

Q: `CN(C)C(c1ccccc1Br)c1c[nH]c2cccc([N+](=O)[O-])c12` (centres unmarked) [Example 57, [(2-Bromo-phenyl)-(4-nitro-1H-indol-3-yl)-methyl]-dimethyl-amine] was tested. Which “% Inhibition of α2 (humans), 10 μM” value did it give?
A: The value was 64%.

Q: For `CN(C)C(c1ccccc1Br)c1cn(C)c2ccccc12` (centres unmarked) [Example 58, [(2-Bromo-phenyl)-(1-methyl-1H-indol-3-yl)-methyl]-dimethyl-amine], which “% Inhibition of α2 (humans), 10 μM” value is on record?
A: The value was 82%.

Q: How did the “% Inhibition of α2 (humans), 10 μM” value turn out when `CCc1cccc2c(C(c3cccc(Br)c3)N(C)C)c[nH]c12` (centres unmarked) [Example 59, [(3-Bromo-phenyl)-(7-ethyl-1H-indol-3-yl)-methyl]-dimethyl-amine] was run?
A: The value was 37%.

Q: Which “% Inhibition of α2 (humans), 10 μM” value does the source give for `CN(C)C(c1cccc(Br)c1)c1cn(C)c2ccccc12` (centres unmarked) [Example 60, [(3-Bromo-phenyl)-(1-methyl-1H-indol-3-yl)-methyl]-dimethyl-amine] here?
A: Its value is 66%.

Q: For `Cc1[nH]c2ccccc2c1C(c1ccc(C(C)(C)C)cc1)N(C)C` (centres unmarked) [Example 61, [(4-tert-Butyl-phenyl)-(2-methyl-1H-indol-3-yl)-methyl]-dimethyl-amine], which “% Inhibition of α2 (humans), 10 μM” value is on record?
A: The value was 63%.

Q: Which “% Inhibition of α2 (humans), 10 μM” value does the source give for `CCn1c(-c2ccccc2)c(C(c2ccc(C(C)(C)C)cc2)N(C)C)c2ccccc21` (centres unmarked) [Example 62, [(4-tert-Butyl-phenyl)-(1-ethyl-2-phenyl-1H-indol-3-yl)-methyl]-dimethyl-amine] here?
A: The value was 51%.

Q: How did the “% Inhibition of α2 (humans), 10 μM” value turn out when `CN(C)C(c1ccc(C(C)(C)C)cc1)c1cn(C)c2ccccc12` (centres unmarked) [Example 63, [(4-tert-Butyl-phenyl)-(1-methyl-1H-indol-3-yl)-methyl]-dimethyl-amine] was run?
A: Its value is 60%.

Q: How did the “% Inhibition of α2 (humans), 10 μM” value turn out when `CN(C)C(c1ccc(F)cc1Cl)c1c[nH]c2cccc([N+](=O)[O-])c12` (centres unmarked) [Example 64, [(2-Chloro-4-fluoro-phenyl)-(4-nitro-1H-indol-3-yl)-methyl]-dimethyl-amine] was run?
A: The value was 48%.

Q: With `Cc1cccc2[nH]cc(C(c3ccc(F)cc3Cl)N(C)C)c12` (centres unmarked) [Example 65, [(2-Chloro-4-fluoro-phenyl)-(4-methyl-1H-indol-3-yl)-methyl]-dimethyl-amine] as the molecule, how does the “% Inhibition of α2 (humans), 10 μM” value read?
A: The value was 42%.

Q: `CN(C)C(c1c(F)cccc1Cl)c1c(-c2ccc(Cl)cc2)[nH]c2ccccc12` (centres unmarked) [Example 67, {(2-Chloro-6-fluoro-phenyl)-[2-(4-chloro-phenyl)-1H-indol-3-yl]-methyl}-dimethyl-amine] was tested. Which “% Inhibition of α2 (humans), 10 μM” value did it give?
A: The value was 36%.

Q: `CN(C)C(c1cccc(Cl)c1)c1cn(C)c2ccccc12` (centres unmarked) [Example 69, [(3-Chloro-phenyl)-(1-methyl-1H-indol-3-yl)-methyl]-dimethyl-amine] was tested. Which “% Inhibition of α2 (humans), 10 μM” value did it give?
A: The value was 75%.

same assay, conditions: 10 µM

Q: Which “% Inhibition of α2 (humans), 10 μM” value does the source give for `CN(C)C(c1c(F)cccc1Cl)c1c(-c2ccccc2)[nH]c2ccccc12` (centres unmarked) [Example 53, [(2-Chloro-6-fluoro-phenyl)-(2-phenyl-1H-indol-3-yl)-methyl]-dimethylamine] here?
A: Its value is 38%.

Q: With `CN(C)C(c1c(F)cccc1Cl)c1cn(C)c2ccccc12` (centres unmarked) [Example 56, [(2-Chloro-6-fluoro-phenyl)-(1-methyl-1H-indol-3-yl)-methyl]-dimethyl-amine] as the molecule, how does the “% Inhibition of α2 (humans), 10 μM” value read?
A: Its value is 39%.

Q: For `CN(C)C(c1c(F)cccc1Cl)c1c(-c2ccccc2)[nH]c2ccccc12` (centres unmarked) [Example 66, [(2-Chloro-6-fluoro-phenyl)-(2-phenyl-1H-indol-3-yl)-methyl]-dimethyl-amine], which “% Inhibition of α2 (humans), 10 μM” value is on record?
A: Its value is 44%.

Q: For `CN(C)C(c1c(F)cccc1Cl)c1cn(C)c2ccccc12` (centres unmarked) [Example 68, [(2-Chloro-6-fluoro-phenyl)-(1-methyl-1H-indol-3-yl)-methyl]-dimethyl-amine], which “% Inhibition of α2 (humans), 10 μM” value is on record?
A: Its value is 88%.
